# Laboratory results taken from PMC10114980, “Triple targeting of mutant EGFR^L858R/T790M, COX-2, and 15-LOX: design and synthesis of novel quinazolinone tethered phenyl urea derivatives for anti-inflammatory and anticancer evaluation” (Journal of Enzyme Inhibition and Medicinal Chemistry, 2023).
# “And” between values parts separate entries of the source, which are not always exact repeats. Equal values may be shown once.
# Experiments:
# [1] = system: LPS-induced NO production in RAW 264.7 cells; assay: NO production in LPS-activated RAW 264.7 macrophage cells (DAF-FM diacetate); assay type: cell-based; details: Mus musculus, RAW264.7; LPS-activated RAW 264.7 cells; mean ± SEM, three replicates
# Procedure: TNF-α and IL-6 production were detected in RAW 264.7 macrophage cell culture supernatants following the induction of inflammation by LPS. Moreover, the probes of oxidative species 2,7-dichlorofluorescein diacetate (DCFH-DA) (Molecular Probes) and NO, 4-amino-5-methylamino-2,7-difluorofluorescein diacetate (DAF-FM diacetate) (Molecular Probes) were used to investigate the antioxidant and NO production inhibitory potential of the test compounds. Briefly, RAW 264.7 cells were cultured in black 96 well plates (200 000 cells/mL, 100 µl/well) for 24 h followed by the incubation with the individual test compounds or the reference drugs at different concentrations (12.5, 25, 50, and 100 µM) for 2 h at 37 °C. LPS was then added at a final concentration of 1 µg/mL for an additional 18 h. The cell culture supernatant was collected from cells treated with the different compounds at 25 µM to measure TNF-α and IL-6 levels (1:10 dilution) using DuoSet ELISA kits (R&D Systems, Minneapolis, MN) following the manufacturer’s instructions. Then, the plates were washed to perform ROS and NO detection assays as detailed in our previous studies[16]^,[27].
# MCF7 = assay: NCI single dose screen, MCF7; assay type: cell-based; details: Homo sapiens; MCF7, breast cancer; single dose 10^−5 M; read-out: growth inhibition percentage
# Procedure: (§1) Screening of the anticancer activity of the newly synthesised compounds (6a, 6c, 6d, 6e, 6j, 6l, 6m, 6n, 6o, and 6p) was performed by the US National Cancer Institute (NCI) using 60 different human tumour cell lines in accordance with standard procedures formerly reported.
# (§2) In vitro anticancer screening was carried out for the selected compounds at a single dose (10^−5 M) against 60 different human tumour cell lines of nine different cancer cell types: leukaemia, lung, colon, CNS, melanoma, ovarian, renal, prostate, and breast cancers.
# SK-MEL-5 = assay: NCI single dose screen, SK-MEL-5; assay type: cell-based; details: Homo sapiens; SK-MEL-5, melanoma; single dose 10^−5 M; read-out: growth inhibition percentage
# Procedure: as §1, §2
# M14 = assay: NCI single dose screen, M14; assay type: cell-based; details: Homo sapiens; M14, melanoma; single dose 10^−5 M; read-out: growth inhibition percentage
# Procedure: as §1, §2
# K-562 = assay: NCI single dose screen, K-562; assay type: cell-based; details: Homo sapiens, K562; K-562, leukaemia; single dose 10^−5 M; read-out: growth inhibition percentage
# Procedure: as §1, §2
# CCRF-CEM = assay: NCI single dose screen, CCRF-CEM; assay type: cell-based; details: Homo sapiens, leukaemia, single dose 10^−5 M, read-out: growth inhibition percentage
# Procedure: as §1, §2
# U251 = assay: NCI single dose screen, U251; assay type: cell-based; details: Homo sapiens, U-251; U251, CNS cancer; single dose 10^−5 M; read-out: growth inhibition percentage
# Procedure: as §1, §2
# [2] = Cell viability assay against normal cell line (MTS); assay type: cell-based; details: mouse, RAW 264.7 cells, concentrations up to 50 μM, read-out: cell viability percentage of the control values
# Procedure: To evaluate the possible non-selective cytotoxic effect of the investigated compounds (6a, 6c, 6d, 6e, 6j, 6l, 6m, 6n, 6o, and 6p) on normal cells, their effect on RAW 264.7 cells viability was assessed at different concentrations (12.5, 25, 50, and 100 µM). Cell viability was measured using 3-(4,5-dimethylthiazol-2-yl)-5-(3-carboxymethoxyphenyl)-2-(4 sulfophenyl)-2H-tetrazolium (MTS) assay (Promega, Madison, Wisconsin) according to the manufacturer’s instructions.
# UACC-257 = assay: NCI single dose screen, UACC-257; assay type: cell-based; details: Homo sapiens; UACC-257, melanoma; single dose 10^−5 M; read-out: growth inhibition percentage
# Procedure: as §1, §2
# HOP-62 = assay: NCI single dose screen, HOP-62; assay type: cell-based; details: Homo sapiens; HOP-62, non-small cell lung cancer; single dose 10^−5 M; read-out: growth inhibition percentage
# Procedure: as §1, §2
# [3] = system: LPS-induced TNF-α production in RAW 264.7 cells; assay: TNF-α production in LPS-activated RAW 264.7 cells (ELISA); assay type: cell-based; details: for TNF-α concentration: LPS-activated RAW 264.7 cells treated with 25 µM of the compound
# HCT-116 = assay: NCI single dose screen, HCT-116; assay type: cell-based; details: Homo sapiens; HCT-116, colon cancer; single dose 10^−5 M; read-out: growth inhibition percentage
# Procedure: as §1, §2
# NCI-H226 = assay: NCI single dose screen, NCI-H226; assay type: cell-based; details: Homo sapiens; NCI-H226, non-small cell lung cancer; single dose 10^−5 M; read-out: growth inhibition percentage
# Procedure: as §1, §2
# human recombinant COX-2 = target: T1, human recombinant COX-2 (Homo sapiens, UniProt P35354); assay: In vitro COX-2 inhibition assay kit (Cayman); assay type: biochemical; details: for COX-2 SI: Selectivity index = COX-1 IC50/COX-2 IC50; for IC50: human recombinant COX-2, mean ± SEM, n = 3 replicates
# T1 sequence (P35354 18-604): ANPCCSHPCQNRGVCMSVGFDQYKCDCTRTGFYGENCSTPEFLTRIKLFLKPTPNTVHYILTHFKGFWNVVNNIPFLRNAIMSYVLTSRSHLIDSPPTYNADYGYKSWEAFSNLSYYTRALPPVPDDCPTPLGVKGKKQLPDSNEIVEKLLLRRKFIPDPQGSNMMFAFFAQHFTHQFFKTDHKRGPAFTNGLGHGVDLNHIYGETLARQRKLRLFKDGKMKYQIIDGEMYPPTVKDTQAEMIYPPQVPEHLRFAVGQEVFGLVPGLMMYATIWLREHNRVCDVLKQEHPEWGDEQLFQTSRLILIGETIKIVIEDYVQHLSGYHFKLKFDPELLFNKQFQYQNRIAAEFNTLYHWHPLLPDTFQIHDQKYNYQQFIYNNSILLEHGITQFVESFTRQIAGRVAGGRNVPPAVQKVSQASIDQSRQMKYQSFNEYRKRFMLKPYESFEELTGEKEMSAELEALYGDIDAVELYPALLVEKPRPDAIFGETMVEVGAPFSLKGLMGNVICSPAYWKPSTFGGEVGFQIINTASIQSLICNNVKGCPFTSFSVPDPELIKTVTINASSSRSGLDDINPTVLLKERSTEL
# Procedure: The half-maximal inhibitory concentration (IC50, μM) was determined, and the COX-2 selectivity index (SI) was calculated as IC50 (COX-1)/IC50 (COX-2).
# SF-268 = assay: NCI single dose screen, SF-268; assay type: cell-based; details: Homo sapiens; SF-268, CNS cancer; single dose 10^−5 M; read-out: growth inhibition percentage
# Procedure: as §1, §2
# TK-10 = assay: NCI single dose screen, TK-10; assay type: cell-based; details: Homo sapiens; TK-10, renal cancer; single dose 10^−5 M; read-out: growth inhibition percentage
# Procedure: as §1, §2
# CAKI-1 = assay: NCI single dose screen, CAKI-1; assay type: cell-based; details: Homo sapiens; CAKI-1, renal cancer; single dose 10^−5 M; read-out: growth inhibition percentage
# Procedure: as §1, §2
# [4] = 25 µM, LPS-activated RAW 264.7 cells
Structure (SMILES),IC50 [1],inhibition at 10 µM (MCF7),inhibition at 10 µM (SK-MEL-5),inhibition at 10 µM (M14),inhibition at 10 µM (K-562),inhibition at 10 µM (CCRF-CEM),inhibition at 10 µM (U251),viability [2],inhibition at 10 µM (UACC-257),inhibition at 10 µM (HOP-62),TNF-α concentration [3],inhibition at 10 µM (HCT-116),inhibition at 10 µM (NCI-H226),COX-2 SI (human recombinant COX-2),IC50 (human recombinant COX-2),inhibition at 10 µM (SF-268),inhibition at 10 µM (TK-10),inhibition at 10 µM (CAKI-1),"TNF-α level, times lower than celecoxib [3, 4]","TNF-α level, times lower than diclofenac [3, 4]"
"CN1c2ccccc2C(=O)N(NC(=O)Nc2ccc(F)cc2)C1c1ccc(F)cc1 (stereo not shown) [Compound 6n, 1-(4-Fluorophenyl)-3-(2–(4-fluorophenyl)-1-methyl-4-oxo-1,4-dihydroquinazolin-3(2H)-yl)urea]",19.9 ± 0.71 µM,29.9%,20.3%,23.2%,22.1%,< 10%,< 10%,> 90%,< 10%,13.3%,1981.00 ± 209.9 pg/mL,22.9%,21%,16.12,0.65 ± 1.3 µM,21.7%,< 10%,25.1%,,
"CN1c2ccccc2C(=O)N(NC(=O)Nc2ccc(F)cc2)C1c1ccc([N+](=O)[O-])cc1 (stereo not shown) [Compound 6o, 1-(4-Fluorophenyl)-3–(1-methyl-2-(4-nitrophenyl)-4-oxo-1,4-dihydroquinazolin-3(2H)-yl)urea]",1.97 ± 1.45 µM,17.9%,13.7%,18%,17.5%,< 10%,< 10%,> 90%,< 10%,< 10%,39.37 pg/mL and 39.37 ± 1.21 pg/mL,21.6%,< 10%,,10.1 ± 1.01 µM,< 10%,< 10%,18.4%,~10 times,~17 times
"COc1ccc(C2N(NC(=O)Nc3ccc(F)cc3)C(=O)c3ccccc3N2C)cc1 (stereo not shown) [Compound 6p, 1-(4-Fluorophenyl)-3-(2–(4-methoxyphenyl)-1-methyl-4-oxo-1,4-dihydroquinazolin-3(2H)-yl)urea]",10.84 ± 0.05 µM,14.7%,< 10%,11.8%,< 10%,< 10%,< 10%,> 90%,< 10%,< 10%,1549.00 ± 20.25 pg/mL,14%,< 10%,9.54,9.28 ± 1.04 µM,< 10%,< 10%,< 10%,,
